Like-named read-outs stand apart in the source and are kept apart here. Values belong to the molecule of their own block, whether it stands above or below them.
Test: Tissue half-life (t1/2) and Cmax in plasma, brain, kidney and liver after oral administration to CD-1 mice
Type: in vivo
Conditions: 30 mg/kg oral gavage; for half-life: male, mouse
Description: In vivo studies were conducted to observe the effect of the compounds of formula IA, IB, IIA, and IIIB in the subject animal. Male CD-1 mice, body weight of 20 grams at arrival, were used in these studies. Mice were given 30 mg/kg of compound in HPMC/Tween solution or suspension via oral gavage. Plasma, brain, and liver samples were collected at time periods of 1, 2, 4, 8, and 24 hours post dosing. One mouse was used per time point. Thus, a total of 5 mice were used for each compound tested. For sample collection, mice were euthanized with CO2. Blood samples were taken by cardiac puncture and kept on ice. Brain and liver samples were collected immediately after bleeding and the samples were kept on dry ice. For calculation of tissue half-lives (t1/2s), the terminal rate constant k was estimated by the absolute value of the slope of a log-linear regression of the terminal phase of the tissue concentration-time profile. The tissue half-life t1/2 is In(2)/k.
The following table includes t1/2 data for plasma, brain, kidney, and liver obtained after oral administration.

[1] = brain, read-out: Tissue Half-Lives, Brain (converted)
[2] = liver, read-out: Tissue Half-Lives, Liver (converted)
[3] = plasma, read-out: Tissue Half-Lives, Plasma (converted)

Compound: COc1ccc(CCn2c(NC3CC3)nc3cc(NC(=N[C@H]4C[C@H]5C[C@@H]([C@@H]4C)C5(C)C)N4CC(=O)N[C@@H](C)C4)ccc3c2=O)c(F)c1 [Example 224, (3S)-N-{2-(cyclopropylamino)-3-[2-(2-fluoro-4-methoxyphenyl)ethyl]-4-oxo-3,4-dihydroquinazolin-7-yl}-3-methyl-5-oxo-N′-[(1S, 2S, 3S, 5R)-2,6,6-trimethylbicyclo[3.1.1]hept-3-yl]piperazine-1-carboximidamide]
Tissue Half-Lives, Liver (liver): 3.1 h

Compound: C[C@@H]1[C@@H](N=C(Nc2ccc3c(=O)n(CCc4ccc(Cl)cc4)c(C4CCCNC4)nc3c2)N2CC(=O)N[C@@H](C)C2)C[C@H]2C[C@@H]1C2(C)C (stereo partly drawn) [Example 241, (3S)-N-{3-[2-(4-chlorophenyl)ethyl]-4-oxo-2-piperidin-3-yl-3,4-dihydroquinazolin-7-yl}-3-methyl-5-oxo-N′-[(1S, 2S, 3S, 5R)-2,6,6-trimethylbicyclo[3.1.1]hept-3-yl]piperazine-1-carboximidamide]
half-life [1]: 51 h
half-life [2]: 17 h
half-life [3]: 21 h

Compound: COc1ccc(CCn2c(C#N)nc3cc(NC(=NC4C[C@H]5C[C@@H]([C@@H]4C)C5(C)C)N4CCN[C@@H](CF)C4)ccc3c2=O)c(F)c1 (stereo partly drawn) [Example 256, (3R)-N-{2-cyano-3-[2-(2-fluoro-4-methoxyphenyl)ethyl]-4-oxo-3,4-dihydroquinazolin-7-yl}-3-(fluoromethyl)-N′-[(1S, 2S, 5R)-2,6,6-trimethylbicyclo[3.1.1]hept-3-yl]piperazine-1-carboximidamide]
half-life [1]: 15 h
half-life [2]: 4.3 h
half-life [3]: 5.4 h

Compound: C[C@@H]1[C@@H](/N=C(/Nc2ccc3c(=O)n(CCc4ccc(Cl)cc4Cl)cnc3c2)N2CCNC(=O)C2)C[C@@H]2C[C@H]1C2(C)C [Example 260, N-{3-[2-(2,4-dichlorophenyl)ethyl]-4-oxo-3,4-dihydroquinazolin-7-yl}-3-oxo-N′-[(1R, 2S, 3S, 5S)-2,6,6-trimethylbicyclo[3.1.1]hept-3-yl]piperazine-1-carboximidamide]
Tissue Half-Lives, Kidney: 7.3 h

The remaining lines, values ahead:

Tissue Half-Lives, Brain (brain): 5.8 h
Compound: COc1ccc(CCn2c(-c3cccnc3)nc3cc(N/C(=N/C4C[C@H]5C[C@@H]([C@@H]4C)C5(C)C)N4CCN(C#N)[C@@H](C)C4)ccc3c2=O)c(F)c1 (stereo partly drawn) [Example 246, (3S)-4-cyano-N-{3-[2-(2-fluoro-4-methoxyphenyl)ethyl]-4-oxo-2-pyridin-3-yl-3,4-dihydroquinazolin-7-yl}-3-methyl-N-[(1S, 2S, 3S, 5R)-2,6,6-trimethylbicyclo[3.1.1]hept-3-yl]piperazine-1-carboximidamide]

Tissue Half-Lives, Kidney: 3.3 h
Compound: COc1ccc(CCn2c(-c3cccnc3)nc3cc(N/C(=N/[C@H]4C[C@@H]5C[C@H]([C@@H]4C)C5(C)C)N4C[C@@H](C)N(O)[C@@H](C)C4)ccc3c2=O)c(F)c1 [Example 296, (3R, 5S)-N-[3-{2-[2-fluoro-4-(methyloxy)phenyl]eth-yl}-4-oxo-2-(3-pyridinyl)-3,4-dihydro-7-quinazolinyl]-4-hydroxy-3,5-dimethyl-N′-[(1R, 2S, 3S, 5S)-2,6,6-trimethylbicyclo[3.1.1]hept-3-yl]-1-piperazinecarboximida-mide]
